The source of these data is patent publication US20110230419A1, “IAP BINDING COMPOUNDS” (Nuevolution A/S, priority 2008, published 2011).

Where a SMILES comes first, the peptide text is derived from it. [ ]: non-standard residue; d: D form. Pro(cis-4-Ph) = O=C(O)[C@@H]1C[C@H](c2ccccc2)CN1; Phe(3-CN) = N#Cc1cccc(C[C@H](N)C(=O)O)c1; Ala(2-furyl) = N[C@@H](Cc1ccco1)C(=O)O; Abu = CC[C@H](N)C(=O)O

In the first test the target is T1, XIAP BIR3 (Homo sapiens, UniProt P98170). As to the kind of experiment: HIS-tagged BIR3 XIAP domain Alphascreen assay. Also noted: HIS-tagged XIAP BIR3 (RnD systems); purchased RnD systems. To be noted: HIS-tagged XIAP BIR3 (RnD systems), biotin-labeled IAP-binding molecule, Streptavidin Donor / Ni-NTA Acceptor Beads, incubation 2 hours; concentration reducing alphascreen signal to half of maximum. The protocol:
HIS-Tagged BIR3 XIAP Domain Alphascreen Assay
Compounds were incubated with Streptavidin Donor Beads, Ni-NTA Acceptor Beads, HIS-tagged XIAP BIR3 (RnD systems) and a biotin-labeled IAP-binding molecule. Following incubation for 2 hours the wells were read in an Envision reader. IC50s correspond to the concentration of compound which reduces the alphascreen signal to half of the maximum.
Target sequence in this assay (P98170 252-356 limits assumed): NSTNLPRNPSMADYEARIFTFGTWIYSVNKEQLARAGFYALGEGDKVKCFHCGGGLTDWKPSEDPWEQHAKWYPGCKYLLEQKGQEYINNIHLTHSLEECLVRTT
In the case of `CNC(C)c1ccc(C(=O)N2C[C@@H](c3ccccc3)C[C@H]2C(=O)N2CC[C@H](c3ccccc3)C2)o1` (stereo partly drawn) [Example 1, [5-(1-Methylamino-ethyl)-furan-2-yl]-[(2S,4R)-4-phenyl-2-((R)-3-phenyl-pyrrolidine-1-carbonyl)-pyrrolidin-1-yl]-methanone], the IC50 lay within 0.1 to 100 nM.
On to `CNC(C)c1ccc(C(=O)N2C[C@@H](c3ccc(F)cc3)C[C@H]2C(=O)N2CCC(c3ccc(F)cc3)C2)o1` (stereo partly drawn) [Example 9, {(2S,4R)-4-(4-Fluoro-phenyl)-2-[3-(4-fluoro-phenyl)-pyrrolidine-1-carbonyl]-pyrrolidin-1-yl}-[5-(1-methylamino-ethyl)-furan-2-yl]-methanone], for which the IC50 was 0.1 to 100 nM.
For `CNC(C)c1cccc(C(=O)N2C[C@@H](c3ccccc3)C[C@H]2CN2CC[C@H](c3ccccc3)C2)c1` (stereo partly drawn) [Example 11, (3-(1-(methylamino)ethyl)phenyl)((2S,4R)-4-phenyl-2-(((R)-3-phenylpyrrolidin-1-yl)methyl)pyrrolidin-1-yl)methanone], the IC50 fell in the range of 100 to 1000 nM.
In the case of `CNC(C)c1cccc(C(=O)N2C[C@@H](c3ccccc3)C[C@H]2C(=O)N2CC[C@H](c3ccccc3)C2)c1` (stereo partly drawn) [Example 3, [3-(1-Methylamino-ethyl)-phenyl]-[(2S,4R)-4-phenyl-2-((R)-3-phenyl-pyrrolidine-1-carbonyl)-pyrrolidin-1-yl]-methanone], the IC50 lay within 100 to 1000 nM.
Still for that read-out and setting: with `O=C(N[C@H](C(=O)N[C@@H]1CCc2ccccc21)C1CCCCC1)C1CC2(CCNCC2)CN1` (stereo partly drawn) [Example 14, 2,8-Diaza-spiro[4.5]decane-3-carboxylic acid [(S)-cyclohexyl-((R)-indan-1-ylcarbamoyl)-methyl]-amide] the figure was 100 to 1000 nM.
Still for that read-out and setting: as for `CNC(C)c1ccc(C(=O)N2C[C@@H](c3ccccc3)C[C@H]2CN2CC[C@H](c3ccccc3)C2)o1` (stereo partly drawn) [Example 10, (5-(1-(methylamino)ethyl)furan-2-yl)((2S,4R)-4-phenyl-2-(((R)-3-phenylpyrrolidin-1-yl)methyl)pyrrolidin-1-yl)methanone], the figure is 100 to 1000 nM; as for `O=C(N[C@@H]1CCc2ccccc21)[C@@H]1C[C@@H](C2CCCCC2)CN1C(=O)C1CC2(CCNCC2)CN1` (stereo partly drawn) [Example 13, (2S,4S)-4-Cyclohexyl-1-(2,8-diaza-spiro[4.5]decane-3-carbonyl)-pyrrolidine-2-carboxylic acid (R)-indan-1-ylamide], 100 to 1000 nM.

The next test deals with T1, XIAP BIR3. Description: Biotinylated BIR3 XIAP domain Alphascreen assay. Set-up: biotinylated XIAP BIR3; biotin (biotinylated). To be noted: biotinylated XIAP BIR3, FITC-labeled IAP-binding molecule, Streptavidin Donor / Anti-FITC Acceptor Beads, incubation 2 hours; concentration reducing alphascreen signal to half of maximum. The protocol:
Biotinylated BIR3 XIAP Domain Alphascreen Assay Compounds were incubated with Streptavidin Donor Beads, Anti-FITC Acceptor Beads, biotinylated XIAP BIR3 and a FITC-labeled IAP-binding molecule. Following incubation for 2 hours the wells were read in an Envision reader. IC50s correspond to the concentration of compound which reduces the alphascreen signal to half of the maximum.
Target sequence in this assay (P98170 241-356 limits assumed): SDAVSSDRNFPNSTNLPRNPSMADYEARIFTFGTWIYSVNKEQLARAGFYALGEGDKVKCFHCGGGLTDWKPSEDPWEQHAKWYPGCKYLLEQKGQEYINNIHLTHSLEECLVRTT
`CC(N)c1ccc(C(=O)N2C[C@@H](c3ccccc3)C[C@H]2C(=O)N2CC[C@H](c3ccccc3)C2)o1` (stereo partly drawn) [Example 5, [5-(1-Amino-ethyl)-furan-2-yl]-[(2S,4R)-4-phenyl-2-((R)-3-phenyl-pyrrolidine-1-carbonyl)-pyrrolidin-1-yl]-methanone]: the IC50 is 0.1 to 100 nM.
The same measure, in the same setting: as for `CNC(=O)[C@@H]1C[C@H](c2ccccc2)CN1C(=O)[C@@H]1C[C@H](c2ccccc2)CN1C(=O)[C@H](Cc1cccc(C#N)c1)NC(=O)[C@H](C)N` [Example 20, (2S,4R)-1-((3R,5S)-1-((S)-2-((S)-2-aminopropanamido)-3-(3-cyanophenyl)propanoyl)-3-phenylpyrrolidine-5-carbonyl)-N-methyl-4-phenylpyrrolidine-2-carboxamide] (H-A[Phe(3-CN)][Pro(cis-4-Ph)][Pro(cis-4-Ph)]-NHMe), the figure is 0.1 to 100 nM.
Same read-out and setting: as for `CC(N)c1cccc(C(=O)N2C[C@@H](c3ccccc3)C[C@H]2C(=O)N2CC[C@H](c3ccccc3)C2)c1` (stereo partly drawn) [Example 6, [3-(1-Amino-ethyl)-phenyl]-[(2S,4R)-4-phenyl-2-((R)-3-phenyl-pyrrolidine-1-carbonyl)-pyrrolidin-1-yl]-methanone], the figure is 100 to 1000 nM; as for `CC[C@H](NC(=O)[C@H](C)N)C(=O)N1C[C@@H](c2ccccc2)C[C@H]1C(=O)N1C[C@@H](c2ccccc2)C[C@H]1C(=O)NC` [Example 16, (2S,4R)-1-((3R,5S)-1-((S)-2-((S)-2-aminopropanamido)butanoyl)-3-phenylpyrrolidine-5-carbonyl)-N-methyl-4-phenylpyrrolidine-2-carboxamide] (H-A[Abu][Pro(cis-4-Ph)][Pro(cis-4-Ph)]-NHMe), 0.1 to 100 nM.
The same measure, in the same setting: with `CNC(=O)[C@@H]1C[C@H](c2ccccc2)CN1C(=O)[C@@H]1C[C@H](c2ccccc2)CN1C(=O)[C@H](Cc1ccco1)NC(=O)[C@H](C)N` [Example 15] (H-A[Ala(2-furyl)][Pro(cis-4-Ph)][Pro(cis-4-Ph)]-NHMe) the figure was 0.1 to 100 nM.
Regarding `C[C@@H](N)C(=O)N[C@@H](Cc1ccc(C(N)=O)cc1)C(=O)N1C[C@@H](c2ccccc2)C[C@H]1C(=O)N[C@@H]1CCc2ccccc21` [Example 17, (2S,4R)-1-((S)-2-((R)-2-aminopropanamido)-3-(4-carbamoylphenyl)propanoyl)-N—((R)-2,3-dihydro-1H-inden-1-yl)-4-phenylpyrrolidine-2-carboxamide], the IC50 lay in the range of 0.1 to 100 nM.
Still for that read-out and setting: as for `CNC(=O)[C@@H]1C[C@H](c2ccccc2)CN1C(=O)[C@@H]1C[C@H](c2ccccc2)CN1C(=O)C(Cn1cncn1)NC(=O)[C@H](C)N` (stereo partly drawn) [Example 21, (2S,4R)-1-((3R,5S)-1-(2-((S)-2-aminopropanamido)-3-(1H-1,2,4-triazol-1-yl)propanoyl)-3-phenylpyrrolidine-5-carbonyl)-N-methyl-4-phenylpyrrolidine-2-carboxamide], the figure is 0.1 to 100 nM; as for `C[C@@H](N)C(=O)N[C@@H](Cc1cccc(C(N)=O)c1)C(=O)N1C[C@@H](c2ccccc2)C[C@H]1C(=O)N[C@@H]1CCc2ccccc21` [Example 23, (2S,4R)-1-((S)-2-((R)-2-aminopropanamido)-3-(3-carbamoylphenyl)propanoyl)-N—((R)-2,3-dihydro-1H-inden-1-yl)-4-phenylpyrrolidine-2-carboxamide], 0.1 to 100 nM; as for `C[C@H](N)C(=O)N[C@@H](Cc1cccc(C(N)=O)c1)C(=O)N1CC(c2ccccc2)C1C(=O)N[C@@H]1CCc2ccccc21` (stereo partly drawn) [Example 18, 1-((S)-2-((S)-2-aminopropanamido)-3-(3-carbamoylphenyl)propanoyl)-N—((R)-2,3-dihydro-1H-inden-1-yl)-3-phenylazetidine-2-carboxamide], 0.1 to 100 nM.
Consider `C[C@H](N)C(=O)N[C@@H](Cc1cccc(C#N)c1)C(=O)N1C[C@@H](c2ccccc2)C[C@H]1C(=O)N[C@@H]1CCc2ccccc21` [Example 19, (2S,4R)-1-((S)-2-((S)-2-aminopropanamido)-3-(3-cyanophenyl)propanoyl)-N—((R)-2,3-dihydro-1H-inden-1-yl)-4-phenylpyrrolidine-2-carboxamide], for which the concentration for half-maximal inhibition (IC50) was 0.1 to 100 nM.
With `C[C@H](N)C(=O)N[C@@H](Cc1cccc(C(N)=O)c1)C(=O)N1CC(C(=O)NC2CCc3ccccc32)C1c1ccccc1` (stereo in doubt) [Example 24, 1-((S)-2-((S)-2-aminopropanamido)-3-(3-carbamoylphenyl)propanoyl)-N—((R)-2,3-dihydro-1H-inden-1-yl)-2-phenylazetidine-3-carboxamide], the IC50 lay in the range of 0.1 to 100 nM.
Regarding `C[C@@H](N)C1CCCC(C(=O)N2C[C@@H](c3ccccc3)C[C@H]2C(=O)N2CC[C@H](c3ccccc3)C2)N1` (stereo partly drawn) [Example 7, [6-((R)-1-Amino-ethyl)-piperidin-2-yl]-[(2S,4R)-4-phenyl-2-((R)-3-phenyl-pyrrolidine-1-carbonyl)-pyrrolidin-1-yl]-methanone], the IC50 is > 1000 nM.
In the case of `C[C@H](N)C1CCCC(C(=O)N2C[C@@H](c3ccccc3)C[C@H]2C(=O)N2CC[C@H](c3ccccc3)C2)N1` (stereo partly drawn) [Example 8, [6-((S)-1-Amino-ethyl)-piperidin-2-yl]-[(2S,4R)-4-phenyl-2-((R)-3-phenyl-pyrrolidine-1-carbonyl)-pyrrolidin-1-yl]-methanone], the IC50 is 100 to 1000 nM.
The same measure, in the same setting: as for `CC(N)c1ccc(C(=O)N2C[C@@H](c3ccccc3)C[C@H]2CN2CC[C@H](c3ccccc3)C2)o1` (stereo partly drawn) [Example 2, (5-(1-Aminoethyl)furan-2-yl)((2S,4R)-4-phenyl-2-(((R)-3-phenylpyrrolidin-1-yl)methyl)pyrrolidin-1-yl)methanone], the figure is 100 to 1000 nM.
The same measure, in the same setting: with `CC[C@H](NC)C(=O)N[C@@H](Cc1cccc(C#N)c1)C(=O)N1C[C@@H](c2ccccc2)C[C@H]1CN1CC[C@H](c2ccccc2)C1` [Example 22, (S)—N—((S)-3-(3-cyanophenyl)-1-oxo-1-((2S,4R)-4-phenyl-2-(((R)-3-phenylpyrrolidin-1-yl)methyl)pyrrolidin-1-yl)propan-2-yl)-2-(methylamino)butanamide] the figure was 0.1 to 100 nM.
